Test results from US20250145595A1, “ANTAGONISTS OF THE MUSCARINIC ACETYLCHOLINE RECEPTOR M4” (Vanderbilt University, priority 2021, published 2025).

Assays:
[1] = molecular target: T1, Human M4 (Homo sapiens, UniProt P08173); assay: mAChR M4 cell-based functional assay (calcium flux, antagonism of EC80 acetylcholine response, M4/Gqi5/CHO-K1 cells); settings: % ACh maximum at 30 μM
T1 construct: expressed in transfected cells; host or cells: CHO-K1 (ATCC), stably co-transfected with Gqi5
T1 sequence (P08173 1-479): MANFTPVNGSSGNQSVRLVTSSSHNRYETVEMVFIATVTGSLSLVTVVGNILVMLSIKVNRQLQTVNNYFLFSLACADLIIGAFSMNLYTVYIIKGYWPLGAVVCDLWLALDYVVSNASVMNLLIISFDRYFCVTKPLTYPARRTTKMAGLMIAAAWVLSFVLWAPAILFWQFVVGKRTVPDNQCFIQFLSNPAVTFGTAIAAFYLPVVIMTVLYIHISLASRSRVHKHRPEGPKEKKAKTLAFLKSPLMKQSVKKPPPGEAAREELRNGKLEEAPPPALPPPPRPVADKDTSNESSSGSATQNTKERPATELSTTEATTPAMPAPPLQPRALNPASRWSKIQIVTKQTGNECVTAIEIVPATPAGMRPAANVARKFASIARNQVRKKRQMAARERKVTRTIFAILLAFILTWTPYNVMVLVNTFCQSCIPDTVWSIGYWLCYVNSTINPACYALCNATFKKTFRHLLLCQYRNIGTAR
Method: Human or rat M4 cDNA, along with the chimeric G protein Gqi5, were transfected into Chinese hamster ovary (CHO-K1) cells purchased from the American Type Culture Collection using Lipofectamine2000. M4/Gqi5/CHO cells were grown in Ham's F-12 medium containing 10% heat-inactivated fetal bovine serum (FBS), 20 mM HEPES, 500 μg/mL G418 sulfate, and 200 μg/mL Hygromycin B.
For high throughput measurement of agonist-evoked increases in intracellular calcium, CHO-K1 cells stably expressing muscarinic receptors were plated in growth medium lacking G^418 and hygromycin at 15,000 cells/20 μL/well in Greiner 384-well black-walled, tissue culture (TC)-treated, clear-bottom plates (VWR). Cells were incubated overnight at 37° C. and 5% CO2. The next day, cells were washed using an ELX 405 (BioTek) with assay buffer; the final volume was then aspirated to 20 μL. Next, 20 μL of a […] of Fluo-4/acetoxymethyl ester (Invitrogen, Carlsbad, CA), prepared as a 2.3 mM stock in DMSO and mixed in a 1:1 ratio with 10% (w/v) Pluronic F-127 and diluted in assay buffer, was added to the wells and the cell plates were incubated for 50 min at 37° C. and 5% CO2. Dye was removed by washing with the ELX 405 and the final volume was aspirated to 20 μL. Compound master plates were formatted in a 10-point concentration-response curve (CRC) format (1:3 dilutions) in 100% DMSO with a starting concentration of 10 or 1 mM using a BRAVO liquid handler (Agilent). Test compound CRCs were then transferred to daughter plates (240 nL) using the Echo acoustic plate reformatter (Labcyte, Sunnyvale, CA) and then diluted into assay buffer (40 μL) to a 2× stock using a Thermo Fisher Combi (Thermo Fisher Scientific, Waltham, MA).
Calcium flux was measured using the Functional Drug Screening System (FDSS) 6000 or 7000 (Hamamatsu Corporation, Tokyo, Japan) as an increase in the fluorescent static ratio. Compounds were applied to cells (20 μL, 2×) using the automated system of the FDSS at 2 seconds into the protocol and the data were collected at 1 Hz. At 143 s, 10 μL of an EC20 concentration of the muscarinic receptor agonist acetylcholine was added (5×), followed by the addition of 12 μL of an EC80 concentration of acetylcholine at the 268 s time point (5×). Agonist activity was analyzed as a concentration-dependent increase in calcium mobilization upon compound addition. Positive allosteric modulator activity was analyzed as a concentration-dependent increase in the EC20 acetylcholine response. Antagonist activity was analyzed as a concentration-dependent decrease in the EC80 acetylcholine response; for the purposes of the tables herein, an IC50 (inhibitory concentration 50) was calculated as a concentration-dependent decrease of the response elicited by an EC80 concentration of acetylcholine. Concentration-response curves were generated using a four-parameter logistical equation in XLFit curve fitting software (IDBS, Bridgewater, NJ) for Excel (Microsoft, Redmond, WA) or Prism (GraphPad Software, Inc., San Diego, CA) or the Dotmatics software platform (Dotmatics, Bishop's Stortford, UK).
Compounds were synthesized as described above. Activity (IC50 and Emin) was determined in the mAChR M4 cell-based functional assay as described above and the data are shown in Table 2.

[2] = molecular target: T2, Human M1 (Homo sapiens, UniProt P11229); assay: mAChR M1 cell-based functional assay (calcium flux, antagonism of EC80 acetylcholine response, hM1 CHO-K1 cells); settings: compound 61 versus compound 62, data of Table 3
T2 sequence (P11229 1-460): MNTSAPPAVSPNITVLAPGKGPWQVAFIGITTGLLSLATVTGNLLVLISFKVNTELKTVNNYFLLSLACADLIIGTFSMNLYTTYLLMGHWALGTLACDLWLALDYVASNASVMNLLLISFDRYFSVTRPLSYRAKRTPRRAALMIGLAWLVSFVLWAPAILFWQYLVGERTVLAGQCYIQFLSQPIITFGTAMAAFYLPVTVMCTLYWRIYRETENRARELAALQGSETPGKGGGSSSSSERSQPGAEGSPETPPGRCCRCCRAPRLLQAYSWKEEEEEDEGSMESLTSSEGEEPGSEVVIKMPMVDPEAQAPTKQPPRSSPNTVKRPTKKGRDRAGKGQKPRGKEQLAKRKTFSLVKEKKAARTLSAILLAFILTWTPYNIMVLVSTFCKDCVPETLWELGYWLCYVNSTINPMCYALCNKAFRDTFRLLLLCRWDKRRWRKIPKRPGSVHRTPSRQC
Method: hM1 cDNA was purchased from Missouri S&T cDNA Resource and used to stably transfect CHO-K1 cells purchased from the American Type Culture Collection using Lipofectamine2000. hM1 cells were grown in Ham's F-12 medium containing 10% heat-inactivated fetal bovine serum (FBS), 20 mM HEPES, and 50 μg/mL G418 sulfate.
For high throughput measurement of agonist-evoked increases in intracellular calcium, CHO-K1 cells stably expressing muscarinic receptors were plated in growth medium lacking G418 and hygromycin at 15,000 cells/20 μL/well in Greiner 384-well black-walled, tissue culture (TC)-treated, clear-bottom plates (VWR). Cells were incubated overnight at 37° C. and 5% CO2. […]
Calcium flux was measured using the Functional Drug Screening System (FDSS) 6000 (Hamamatsu Corporation, Tokyo, Japan) as an increase in the fluorescent static ratio. […] Agonist activity was analyzed as a concentration-dependent increase in calcium mobilization upon compound addition. […] Positive allosteric modulator activity was analyzed as a concentration-dependent increase in the EC20 acetylcholine response. Antagonist activity was analyzed as a concentration-dependent decrease in the EC80 acetylcholine response; for the purposes of the tables herein, an IC50 (inhibitory concentration 50) was calculated as a concentration-dependent decrease of the response elicited by an EC80 concentration of acetylcholine. […]

[3] = system: catalepsy induced by the DA receptor antagonist haloperidol; settings: cited from earlier work

[2H]C([2H])(C1CCOC(C)(C)C1)N1C[C@H]2C[C@H](Nc3ccc(-c4cnccc4C(F)(F)F)nn3)C[C@H]2C1 (single isomer, unassigned) [Compound 58]
Human M4 Emin [1]: 3%

[2H]C1([2H])CC(C([2H])([2H])N2C[C@H]3C[C@H](Nc4nnc(-c5cnccc5C(F)(F)F)cc4C)C[C@H]3C2)CC([2H])([2H])O1 [Compound 18, (3aR,5s,6aS)-N-(4-methyl-6-(4-(trifluoromethyl)pyridin-3-yl)pyridazin-3-yl)-2-((tetrahydro-2H-pyran-4-yl-2,2,6,6-d4)methyl-d2)octahydrocyclopenta[c]pyrrol-5-amine]
Human M4 Emin [1]: 4%

[2H]C1([2H])CC(C([2H])([2H])N2C[C@H]3C[C@H](Nc4nnc(-c5cnccc5C(F)(F)F)cc4OC)C[C@H]3C2)CC([2H])([2H])O1 [Compound 22, (3aR,5s,6aS)-N-(4-methoxy-6-(4-(trifluoromethyl)pyridin-3-yl)pyridazin-3-yl)-2-((tetrahydro-2H-pyran-4-yl-2,2,6,6-d4)methyl-d2)octahydrocyclopenta[c]pyrrol-5-amine]
Human M4 Emin [1]: 2%

[2H]C([2H])([C@@H]1CCCOC1)N1C[C@H]2C[C@H](Nc3ccc(-c4cccnc4C(F)(F)F)nn3)C[C@H]2C1 [Compound 47, (3aR,5s,6aS)-2-(((S)-tetrahydro-2H-pyran-3-yl)methyl-d2)-N-(6-(2-(trifluoromethyl)pyridin-3-yl)pyridazin-3-yl)octahydrocyclopenta[c]pyrrol-5-amine]
Human M4 Emin [1]: 2%

[2H]C([2H])([C@H]1CCCCO1)N1C[C@H]2C[C@H](Nc3ccc(-c4cccnc4C(F)(F)F)nn3)C[C@H]2C1 [Compound 49, (3aR,5s,6aS)-2-(((R)-tetrahydro-2H-pyran-2-yl)methyl-d2)-N-(6-(2-(trifluoromethyl)pyridin-3-yl)pyridazin-3-yl)octahydrocyclopenta[c]pyrrol-5-amine]
Human M4 Emin [1]: 2%

[2H]C([2H])([C@H]1CCOC(C)(C)C1)N1C[C@H]2C[C@H](Nc3ccc(-c4cccnc4C(F)(F)F)nn3)C[C@H]2C1 [Compound 61, (3aR,5s,6aS)-2-(((S)-2,2-dimethyltetrahydro-2H-pyran-4-yl)methyl-d2)-N-(6-(2-(trifluoromethyl)pyridin-3-yl)pyridazin-3-yl)octahydrocyclopenta[c]pyrrol-5-amine]
human mAChR M1 antagonist activity (comparison in words) [2]: less human mAChR M1 antagonist activity than compound 62
remaining activity at 30 µM ([1]; CHO-K1, read-out: Human M4 Emin): 8%

CN1[C@@H]2C[C@@H](OC(=O)[C@H](CO)c3ccccc3)C[C@H]1[C@@H]1O[C@@H]12 [scopolamine]
reduction of haloperidol-induced catalepsy ([3]; M4KO mice): ineffective in reducing catalepsy
reversal of haloperidol-induced catalepsy ([3]; WT mice): completely reversed
